Reference: patent publication US6358960B1, “Amidino derivatives and drugs containing the same as the active ingredient” (Ono Pharmaceutical Co., Ltd., priority 1998, dated 2002)

Target: T1, FVIIa (Homo sapiens, UniProt P08709)
T1 construct: FVIIa (ADI#407, final 10 nM); purchased ADI #407 (FVIIa); #4500 (tissue factor)
Experiment: FVIIa inhibitory activity (chromogenic substrate S-2288, FVIIa/tissue factor)
Assay type: biochemical
Settings: FVIIa 10 nM, tissue factor 10 nM, 2 mM CaCl2, 0.5 mM S-2288, 37° C., pH 7.5
Method: 10 μl of the compound of the present invention in 10% DMSO were added to 65 μl of the buffer solution including FVIIa (ADI#407, final 10 nM), tissue factor (ADI#4500, final 10 nM) and calcium chloride. The mixture was incubated for 10 minutes at 37° C., then 25 μl of 2 mM H-D-Ile-Pro-Arg-pNA (Chromogenix S-2288) was added (total volume 100 μl). The absorbance was measured at 405 nm at regular time intervals, and an initial velocity was calculated. The control value was measured with 10% of DMSO. Inhibitory activity was expressed as a 50% inhibition of control (IC50).
The final concentration of calcium chloride and S-2288 were 2 mM and 0.5 mM respectively. The buffer solution consisted of 50 mM tris-hydrochloric acid buffer (pH 7.5) containing 0.2% PEG6000 and 150 mM sodium chloride.

T1 sequence (P08709 213-466 limits assumed): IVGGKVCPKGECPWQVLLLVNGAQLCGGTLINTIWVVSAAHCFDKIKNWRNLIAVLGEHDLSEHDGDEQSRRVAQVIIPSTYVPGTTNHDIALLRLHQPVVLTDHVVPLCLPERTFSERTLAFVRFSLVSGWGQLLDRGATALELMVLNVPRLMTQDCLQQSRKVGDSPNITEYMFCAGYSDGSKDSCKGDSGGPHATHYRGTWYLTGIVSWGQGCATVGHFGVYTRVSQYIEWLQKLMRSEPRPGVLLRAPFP
T1 sequence (P08709 61-212 limits assumed): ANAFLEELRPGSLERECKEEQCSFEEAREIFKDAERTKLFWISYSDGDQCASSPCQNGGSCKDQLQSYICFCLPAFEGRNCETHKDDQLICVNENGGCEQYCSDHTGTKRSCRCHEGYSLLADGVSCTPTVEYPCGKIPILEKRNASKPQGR
T1 sequence (P13726 33-295 partner): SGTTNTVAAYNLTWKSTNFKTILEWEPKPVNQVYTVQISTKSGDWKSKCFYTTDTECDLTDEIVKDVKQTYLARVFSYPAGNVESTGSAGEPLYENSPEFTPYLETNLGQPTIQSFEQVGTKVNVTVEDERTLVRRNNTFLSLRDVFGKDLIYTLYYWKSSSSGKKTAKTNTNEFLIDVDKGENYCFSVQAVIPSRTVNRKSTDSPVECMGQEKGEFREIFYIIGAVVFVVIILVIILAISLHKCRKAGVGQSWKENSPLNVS

IC50	SMILES
12 nM	CC(C)CNC(=O)c1ccc(-c2cc3ccccc3cc2C(=O)Nc2ccc(C(=N)N)cc2)c(C(=O)O)c1 [Example 19(47), 2-(3-(4-amidinophenylcarbamoyl)naphthalen-2-yl)-5-((2-methylpropyl)carbamoyl)benzoic acid methanesulfonate]
13 nM	COc1ccc(-c2ccc(C(=O)N[C@H](CO)C(C)(C)C)cc2C(=O)O)c(C(=O)Nc2ccc(C(=N)N)cc2)n1 [Example 46, 2-[2-(4-amidinophenylcarbamoyl)-6-methoxy-3-pyridyl]-5-[(1(S)-hydroxymethyl-2,2-dimethylpropyl)carbamoyl]benzoic acid methanesulfonate]
